pIC50: −log10 of the molar value. Counter-ions that a name gives are not always drawn. Like-named read-outs stand apart in the source and are kept apart here.
Assays:
mice = experiment: Acute toxicity (DL0, oral); format: in vivo, mouse; set-up: unit not given here
[1] = tested on: cardiac rhythm troubles in guinea pigs; experiment: Antiarythmic action (K-strophanthine and adrenaline induced cardiac rhythm troubles); format: in vivo, guinea pig; settings: Cavia porcellus, 1 h, oral 10 mg/kg, one hour before K-strophanthine and adrenaline perfusion, read-out: Percentage of protection (lengthening of the time of appearance of cardiac rhythm troubles as compared to controls)
Experimental: Male guinea pigs weighing between 450 and 500 g were tracheotomized while anesthesized by intraperitoneal administration of […] of urethane and were subjected to artifical respiration of 40 to 50 breaths of 5 ml per minute. Needles were subcutaneously implanted to register an electrocardiogram of the guinea pigs for the signal of D II derivation. The test products were orally administered and one hour later, the jugular vein of the guinea pigs were perfused with 0.5 ml per minute of a solution of 150 γ/ml of K-strophanthine and 0.5 ml per minute of a solution of 5 γ/ml of adrenaline and the number of times of the appearance of cardiac rhythm troubles was noted. The results are expressed in percentage of protection with an oral dose of 10 mg/kg of test product that is to say the percentage of lengthening of the time of appearance of cardiac rhythm troubles as compared to the controls.

[2] = tested on: Rat arteries (arterial contractions, entry of calcium ions into the cells of smooth muscles); experiment: In vitro anticalcic activity (inhibition of potassium-depolarized, calcium-induced contractions of isolated rat arteries); format: cell-based; settings: dose inhibiting by 50% the contractions caused by potassium ions (100 mM), 37° C., read-out: CI50 (the source's name)
Experimental: Rat arteries decoupled in a spiral were attached to a tension collector and were maintained in tanks containing 2.5 ml of Krebs-sodium bicarbonate buffer (NaCl: 120.8 mM, KCl: 5.9 mM, MgCl2 : 1.2 mM, NaH2 PO4 : 1.2 mM, NaHCO3 : 15.5 mM, glucose: 12.6 mM), at 37° C. covered with a 95%-5% oxygen-carbon dioxide mixture. The preparations were depolarized with a buffered solution containing 100 mM of potassium ions (NaCl: 26.7 mM, KCl: 100 mM, MgCl2 : 1.2 mM, NaH2 PO4 : 1.2 mM, NaHCO3 : 15.5 mM, glucose 12.6 mM).
A volume of 25 μl of calcium chloride was added to the mixture in a manner to obtain a range of increasing concentrations of calcium ions from 0.1 to 3.0 mM and the contractions of the artery were measured to obtain a control. The operation with range of calcium ions was repeated every 15 minutes and the preparation was washed 4 times after each range. When a stable response was obtained, the operation with the range of calcium ions was effected in the presence of varying concentrations of test compounds until a stable response was obtained.
The arterial contractions depend on the entry of calcium ions into the cells of smooth muscles and are provoked by depolarization of smooth muscles by potassium ions and by action of noradrenaline freed by presynapthic level. By recommencing the operation with denerved arteries by the action of 6-hydroxy-dopamine, the specific action due to noradrenaline is suppressed.

α1 adrenergic receptors = experiment: Affinity for α1 adrenergic receptors (3H prazosine displacement, rat brain); format: binding; settings: relative to phentolamine (ARL=100×(CB/CX)), 25° C., pH 7.7
Experimental: After centrifugation at 30,000 g for 15 minutes at 0° to 4° C., the culot was suspended in 240 ml of buffer Tris HCl 50 mM (pH-7.7) and the suspension was centrifuged at 30,000 g for 20 minutes at 0° to 4° C. The new culot was suspended in 480 ml of buffer Krebs Tris HCl (pH of 7.7-50 mM) and 2 ml of the suspension in the presence of 3H prazosine at a concentration of […] alone and with increasing concentrations of the test compound or with non-radioactive phentolamine at a concentration of 10^-5 M to determine the non-specific fixation was incubated at 25° C. for 30 minutes.
The incubated suspensions were filtered through Whatman FG/C and the filtered were washed with 3 times with 5 ml of buffer Krebs Tris HCl-pH of 7.7 at 0° to 4° C. The radioactivity of the filters was measured by liquid scintillation and the affinity of the test compound for α1 adrenergic receptors was compared relative to phentolamine as the reference compound by the formula
CD=concentration of phentolamine inhibiting by 50% the specific fixation of 3H prazosine.
CX=concentration of test product inhibiting by 50% the specific fixation of 3H prazosine.

β2 -adrenergic receptors = biological target: T1, β2 -adrenergic receptors (Rattus norvegicus, UniProt P10608); experiment: Affinity for β2 adrenergic receptors (3H dihydroalprenolol displacement, rat cerebellum); format: binding; settings: relative to propranolol, 37° C., pH 7.7
T1 construct: cerebellums of male rats weighing an average of 150 g; from tissue; host or cells: cerebellum of male rats (membranes)
Experimental: The technique was inspired by that of Mohler et al [Science, Vol. 198 (1977), p. 849-851] and the cerebellums of male rats weighing an average of 150 g were homogenized in 90 ml of 0.32M sucrose. After centrifugation of the homogenized mixture at 1000 g for 20 minutes at 0° C., the surnageant was centrifuged at 30,000 g for 15 minutes at 0° to 4° C. The culot was suspended in 120 ml of buffer Tris HCl (50 mM-pH of 7.7) and the suspension was centrifuged at 30,000 g for 15 minutes at 0° to 4° C. The resulting culot was suspended in 480 ml of buffer Krebs Tris HCl with a pH of 7.7 and 2 ml of the suspension was incubated at 37° C. for 10 minutes in the presence of 3H dihydroalprenolol at a concentration of 10^-9 M alone and with increasing concentrations of the test compound or with 10^-5 M of non-radioactive propranolol to determine the non-specific fixation.
The incubated suspensions were filtered through Whatman FG/C filter and the filters were rinsed 3 times with 5 ml of buffer Krebs Tris HCl with a pH of 7.7 at 0° C. The radioactivity of the filters was measured by liquid scintillation and the affinity of the test compounds for β2 -adrenergic receptors relative to propranolol as a standard was determined similar as to Test D. The results are reported in Table VII.

β1 adrenergic receptors = biological target: T2, β1 adrenergic receptors (Rattus norvegicus, UniProt P18090); experiment: Affinity for β1 adrenergic receptors (3H dihydroalprenolol displacement, rat brain cortex); format: binding; settings: relative to propranolol, 37° C., pH 7.7
T2 construct: 10 cortexes removed from the brains of male rats weighing an average of 150 g; from tissue; host or cells: cerebral cortex of male rats (membranes)
Experimental: The test was inspired by that of Mohler et al [Science, Vol. 198 (1977), p. 849-851] and 10 cortexes removed from the brains of male rats weighing an average of 150 g were homogenized in 90 ml of 0.32M of sucrose. After centrifuging the homogenized mixture at 1000 g for 20 minutes at 0° C., the surnageant was centrifuged at 30,000 g for 15 minutes at 0° to 4° C. The culot was suspended in 120 ml of buffer Tris HCl 50 mM with a pH of 7.7 and was centrifuged at 30,000 g for 15 minutes at 0° to 4° C. The resulting culot was suspended in 480 ml of buffer Krebs Tris HCl (50 mM-pH of 7.7) and 2 ml of the suspension in the presence of 3H dihydroalprenolol at a concentration of 10^-9 M alone and with increasing concentrations of the test compound or with non-radioactive propranolol at a concentration of 10^-5 M to determine the non-specific fixation was incubated at 37° C. for 10 minutes.
The incubated suspensions were filtered through Whatman GF/C and the filters were washed 3 times with 5 ml of buffer Krebs Tris HCl (pH-7.7) at 0° C. The radioactivity of the filters was measured by liquid scintillation and the affinity of the test compounds for β1 -adrenergic receptors was compared using propranolol as a standard as in Test D. The results are reported in Table VI.

[3] = tested on: carotidien arterial pressure in rats; experiment: Hypotensive activity (carotidien arterial pressure in anesthesized rats); format: in vivo, rat (Wistar); settings: rat, intravenous
Experimental: The hypotensive activity was studied on male rats of the Wistar strain weighing about 300 g and anesthesized with 50 mg/kg of nembutal intraveinously. The test products were administered intraveinously by the jugular vein and the carotidien arterial pressure was measured before and after administration of the test compounds. The variations expressed in percentage of arterial pressure after administration with respect to the initial pressure is reported in Table IV.

[4] = 1 min, 1 minute, read-out: % Variation of arterial pressure after administration, 1 minute
[5] = 5 min, 5 minutes, read-out: % Variation of arterial pressure after administration, 5 minutes
[6] = 10 min, 10 minutes, read-out: % Variation of arterial pressure after administration, 10 minutes
[7] = 0.5 h, 30 minutes, read-out: % Variation of arterial pressure after administration, 30 minutes

T1 sequence (P10608 whole entry): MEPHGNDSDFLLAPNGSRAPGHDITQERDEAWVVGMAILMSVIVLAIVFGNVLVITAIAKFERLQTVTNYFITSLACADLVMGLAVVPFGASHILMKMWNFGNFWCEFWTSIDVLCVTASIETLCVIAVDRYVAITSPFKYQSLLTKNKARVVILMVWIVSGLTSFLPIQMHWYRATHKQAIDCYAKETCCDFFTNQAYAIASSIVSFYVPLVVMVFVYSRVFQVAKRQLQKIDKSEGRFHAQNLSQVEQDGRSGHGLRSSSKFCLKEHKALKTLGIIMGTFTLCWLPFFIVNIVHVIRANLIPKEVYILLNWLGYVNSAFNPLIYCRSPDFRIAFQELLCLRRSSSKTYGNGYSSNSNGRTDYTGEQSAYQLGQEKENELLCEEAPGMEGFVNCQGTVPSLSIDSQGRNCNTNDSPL
T2 sequence (P18090 whole entry): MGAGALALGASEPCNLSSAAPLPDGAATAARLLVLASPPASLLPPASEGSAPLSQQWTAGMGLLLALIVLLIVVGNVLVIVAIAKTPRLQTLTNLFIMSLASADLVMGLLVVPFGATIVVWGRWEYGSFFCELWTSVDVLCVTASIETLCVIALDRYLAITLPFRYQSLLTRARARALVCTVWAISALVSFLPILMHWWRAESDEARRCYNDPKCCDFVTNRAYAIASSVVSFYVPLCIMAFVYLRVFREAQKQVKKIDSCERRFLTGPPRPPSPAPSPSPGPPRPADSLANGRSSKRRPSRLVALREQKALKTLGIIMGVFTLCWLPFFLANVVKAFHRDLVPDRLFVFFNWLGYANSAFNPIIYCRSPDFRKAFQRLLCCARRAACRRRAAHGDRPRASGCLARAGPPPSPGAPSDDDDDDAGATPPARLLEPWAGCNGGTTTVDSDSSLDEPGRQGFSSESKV

Compound: CC(=O)c1ccccc1OCC(O)CN1CCC(c2c[nH]c3ccccc23)CC1 (stereo not drawn) [Example 17, 4-(1H--indol-3-yl)-α-[2-(acetyl-phenoxymethyl]-piperidine-1-ethanol hydrochloride]
- DL0 (maximum dose which did not cause any deaths after 8 days) (mice): > 100
- change in vivo at 10 mg/kg [1]: 142%
- pIC50 [2]: 5.22
- % Arl (relative affinity for α1 adrenergic receptors) (α1 adrenergic receptors): 159%
- ARL in % (relative affinity for β2 adrenergic receptors) (β2 -adrenergic receptors): 3.3%
- ARL in % (relative affinity for β1 adrenergic receptors) (β1 adrenergic receptors): 1.2%
- change in vivo at 1 mg/kg [3, 4]: -17%
- change in vivo at 1 mg/kg [3, 5]: -5%
- change in vivo at 1 mg/kg [3, 6]: -18%
- change in vivo at 1 mg/kg [3, 7]: -6%

Compound: N#Cc1ccccc1OCC(O)CN1CCC(c2c[nH]c3ccccc23)CC1 (stereo not drawn) [Example 4, 4-(1H--indol-3-yl)-α-[2-cyanophenoxymethyl]-piperidine-1-ethanol hydrochloride]
- DL0 (maximum dose which did not cause any deaths after 8 days) (mice): > 100
- change in vivo at 10 mg/kg [1]: 148%
- pIC50 [2]: 5.46
- % Arl (relative affinity for α1 adrenergic receptors) (α1 adrenergic receptors): 145%
- ARL in % (relative affinity for β2 adrenergic receptors) (β2 -adrenergic receptors): 1.1%
- ARL in % (relative affinity for β1 adrenergic receptors) (β1 adrenergic receptors): 13.3%
- change in vivo at 1 mg/kg [3, 4]: -24%
- change in vivo at 1 mg/kg [3, 5]: -21%
- change in vivo at 1 mg/kg [3, 6]: -22%
- change in vivo at 1 mg/kg [3, 7]: -26%

Compound: COC(=O)c1ccccc1OCC(O)CN1CCC(c2c[nH]c3ccccc23)CC1 (stereo not drawn) [Example 6, 4-(1H--indol-3-yl)-α-[2-methoxycarbonyl-phenoxymethyl]-piperidine-1-ethanol hydrochloride]
- DL0 (maximum dose which did not cause any deaths after 8 days) (mice): 80
- change in vivo at 10 mg/kg [1]: 37%
- pIC50 [2]: 5.52
- % Arl (relative affinity for α1 adrenergic receptors) (α1 adrenergic receptors): 253%
- ARL in % (relative affinity for β2 adrenergic receptors) (β2 -adrenergic receptors): 3.5%
- ARL in % (relative affinity for β1 adrenergic receptors) (β1 adrenergic receptors): 1.3%
- change in vivo at 1 mg/kg [3, 4]: -21%
- change in vivo at 1 mg/kg [3, 5]: -13%
- change in vivo at 1 mg/kg [3, 6]: -13%
- change in vivo at 1 mg/kg [3, 7]: 0%
